In patent US9226929B2, “Pharmaceutically active disubstituted triazine derivatives” (Bayer Intellectual Property GMBH, priority 2011, dated 2016):

Experiments:
CDK9 = target: T1, CDK9 (Homo sapiens, UniProt P50750); experiment: Lance Ultra KinaSelect Assay, CDK9; type: biochemical; details: cyclin partner (T1 or K) not stated; read-out: CDK9 LANCE assay (activity range), IC50
T1 construct: purchased Invitrogen
Protocol: (§1) 2. Measurement of half maximal inhibitory concentration to CDKs This protocol describes how the Lance Ultra KinaSelect Assay was performed to determine half maximal inhibitory concentration (1050) of compounds of general formula (I) and CDK/Cyclin complexes. The principle behind this enzymatic assay is based upon the phosphorylation of the ULight-Peptide Substrat. It is detected by using a specific
(§2) EU-labeled anti-phospho peptide antibody. The binding of the Eu-labeled anti-phospho peptide antibody to the phosphorylated ULight labeled peptide gives rise to a FRET-signal. Binding of an inhibitor to the kinase prevents phosphorylation of the ULight-MBP Substrat, resulting in a loss of FRET.
(§3) The compounds of general formula (I) summarized in Table 5 were diluted from a 10 mM DMSO stock solution 1:10 in a total volume of 15 μL DMSO. This compound predilution was then serial diluted 1:3 over 8 steps in DMSO and briefly spun down. Each compound solution was now diluted 1:20 in Enzymatic Buffer (HEPES: 50 mM, pH: 7.5; MgCl2: 10 mM; EGTA: 1 mM; DTT: 2 mM; Tween-20: 0.01%), mixed thoroughly and spun down. For every sample, 2 μL of the diluted compound were mixed with 6 μL CDK/Cyclin/Substrat solution and 2 μL ATP solution in a well of a small volume 384 well plate (Corning Incorporated, Corning, N.Y., USA; order no. 3673). The CDK/Cyclin was diluted to the appropriate concentration (see Table 3) and the ATP concentration was adjusted to its […] for the CDK/Cyclin, which was 3 μM for CDK2/Cyclin A, 20 μM for CDK1/Cyclin B1, 25 μM for CDK7/Cyclin H and CDK9/Cyclin T1, 55 μM for CDK6/Cyclin D3, 90 μM for CDK4/Cyclin D1 and 125 μM for CDK9/Cyclin K. For negative controls, in each well 2 μL of DMSO solution (1% final DMSO assay concentration) was mixed with 6 μL substrate solution (50 nM ULight MBP final assay concentration) and 2 μL ATP solution (appropriate final concentration see Table 3). For positive controls, in each well 2 μL of DMSO solution (1% final DMSO assay concentration) was mixed with 6 μL CDK/Cyclin/Substrat (appropriate final concentration see Table 3) and 2 μL Tracer ATP solution (appropriate final concentration see Table 3). Positive and negative controls were calculated from at least 8 different sample wells. The 384 well plates were mixed in a Teleshaker plate mixer (Beckman Coulter, Brea, Calif., USA) at 2000 rpm for 40 sec, and incubated for 1 h at room temperature. Before reading, 10 μL the detection buffer (Lance Detection Buffer 1×; EDTA: […]; Eu-Anti-P-MBP: see Table 3) was added. The FRET signal was measured at 340 nm excitation, 665 nm and 615 nm emission (for the kinase tracer and LanthaScreen Eu-AB, respectively) with an Envision spectrophotometer (Perkin Elmer, Waltham, Mass., USA) with 50 μs delay and 300 μs integration time. IC50 values were determined from the sigmoidal dose response curves with the software Quattro Workflow (Quattro GmbH, Munich, Germany).

CDK7/CyclinH/MAT1 = target: T2, CDK7/CyclinH/MAT1 (Homo sapiens, UniProt P50613); experiment: Lance Ultra KinaSelect Assay, CDK7; type: biochemical; details: ATP 25 μM; read-out: CDK7 LANCE assay (activity range), IC50
T2 construct: His; purchased Carna Biosciences
T2 sequence (P50613 whole entry): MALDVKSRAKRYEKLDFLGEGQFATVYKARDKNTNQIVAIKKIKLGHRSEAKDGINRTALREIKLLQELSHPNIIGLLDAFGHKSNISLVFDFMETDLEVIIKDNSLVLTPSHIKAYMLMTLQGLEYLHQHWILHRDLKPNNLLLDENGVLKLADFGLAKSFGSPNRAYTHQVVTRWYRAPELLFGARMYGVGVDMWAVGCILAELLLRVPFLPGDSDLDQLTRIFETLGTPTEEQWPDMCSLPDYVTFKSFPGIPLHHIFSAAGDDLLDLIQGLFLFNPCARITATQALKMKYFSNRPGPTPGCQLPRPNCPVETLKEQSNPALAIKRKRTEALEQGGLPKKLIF
T2 sequence (P51946 whole entry partner): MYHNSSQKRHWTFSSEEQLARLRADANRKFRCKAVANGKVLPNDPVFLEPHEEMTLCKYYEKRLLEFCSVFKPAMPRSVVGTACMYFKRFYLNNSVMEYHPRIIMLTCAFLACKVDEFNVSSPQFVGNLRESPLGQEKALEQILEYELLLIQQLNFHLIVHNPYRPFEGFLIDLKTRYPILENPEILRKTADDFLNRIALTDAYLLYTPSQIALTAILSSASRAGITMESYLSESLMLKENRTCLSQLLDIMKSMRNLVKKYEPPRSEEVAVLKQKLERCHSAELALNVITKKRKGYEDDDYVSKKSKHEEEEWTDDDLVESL
T2 sequence (P51948 whole entry partner): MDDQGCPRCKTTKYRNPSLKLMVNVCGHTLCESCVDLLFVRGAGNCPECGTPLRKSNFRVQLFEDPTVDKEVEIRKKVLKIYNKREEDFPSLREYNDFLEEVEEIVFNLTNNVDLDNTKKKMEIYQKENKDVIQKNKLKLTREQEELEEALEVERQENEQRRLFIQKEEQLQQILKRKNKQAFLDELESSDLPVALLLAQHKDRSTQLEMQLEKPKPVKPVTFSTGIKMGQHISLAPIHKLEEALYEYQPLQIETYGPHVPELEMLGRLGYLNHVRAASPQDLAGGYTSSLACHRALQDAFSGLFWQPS
Protocol: as §1, §2, §3

[1] = test system: NF-kappaB reporter gene activation; experiment: NF-kappaB Reporter Assay; type: cell-based; details: Homo sapiens; HEK293 cells, pNFkBluc reporter, 20 ng/ml TNF alpha, 5 h; read-out: NF-kappaB activation (activity range), IC50
Protocol: 3.2 NF-kappaB Reporter Assay
Cells were maintained in RPMI cell culture medium+glutamine (PAN Biotech GmbH, Aidenbach, Germany) supplemented with 10% fetal calf serum (PAA Laboratories GmbH, Pasching, Austria) and grown at 37° C., 5% CO2. HEK293 cells grown to 50% confluence were transfected with the Amaxa® Cell Line Nucleofector® Kit V (Lonza, Basel, Switzerland, catalog #VCA-1003). Transfections were performed according to manufacturer's optimized protocol for transfection of HEK293 cells. In brief, 2×10^5 cells were transfected with 5 μg highly purified plasmid DNA. Cells were transfected with a NF-kappa B reporter plasmid (pNFkBluc), pTALluc for control, or pMAXGFP for transfection control. After transfection, cells were taken up in 500 μL RPMI1640 cell culture medium, incubated for 1 h at 37° C., and 4.5 ml DMEM without phenol red were added per transfection. Transfected cells were seeded in 96 well plates (Greiner Bio-One, Frickenhausen, Germany, catalog #655098) with 100 μL cell suspension per well and incubated for 48 h. To each well, 100 μL DMEM with 2× concentrated compound diluted from 10 mM DMSO stocks, or 100 μL DMEM with 0.4% DMSO for control wells, was added. The compounds of general formula (I) summarized in Table 6 were used in this assay. Cells were stimulated with 20 ng/ml TNF alpha, and plates were incubated for 5 h at 37° C./5% CO2. Cell culture supernatants were removed to leave 100 μl medium per well, followed by addition of 100 μl Bright Glo luciferase assay reagent (Promega, Madison, Wis., USA, catalog #E2620), and shaking for 5 minutes in the dark. Luminescence was measured with a Victor Photospectrometer (Perkin Elmer, Waltham, Mass., USA). IC50 values were calculated with the software Excel Fit (IDBS, Guildford, UK) from 2-fold dilution series comprising at least 10 concentrations in duplicates.

T1 sequence (P50750 whole entry): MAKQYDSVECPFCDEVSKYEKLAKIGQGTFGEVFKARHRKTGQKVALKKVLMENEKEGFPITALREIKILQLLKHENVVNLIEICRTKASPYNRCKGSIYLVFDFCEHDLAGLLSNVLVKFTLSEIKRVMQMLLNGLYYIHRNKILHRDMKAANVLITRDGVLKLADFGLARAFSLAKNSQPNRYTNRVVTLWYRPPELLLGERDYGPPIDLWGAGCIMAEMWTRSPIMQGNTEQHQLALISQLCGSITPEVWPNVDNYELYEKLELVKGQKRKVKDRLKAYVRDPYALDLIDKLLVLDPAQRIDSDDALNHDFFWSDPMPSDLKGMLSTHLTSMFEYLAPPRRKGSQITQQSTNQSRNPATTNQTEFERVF

| SMILES | IC50 (CDK9) | IC50 (CDK7/CyclinH/MAT1) | IC50 [1] |
| --- | --- | --- | --- |
| NS(=O)(=O)Cc1cccc(Nc2ncnc(N3CCCC3c3ccccc3)n2)c1 (racemic) [Compound B33, rac-3-[(4-(2-Phenylpyrrolidin-1-yl)-1,3,5-triazin-2-yl)amino]-benzenemethanesulfonamide] | 100 to 1000 nM | > 10000 nM | 1000 to 10000 nM |
| NS(=O)(=O)Cc1cccc(Nc2ncnc(N3CCCCC3)n2)c1 [Compound B1, 3-[(4-(Piperidin-1-yl)-1,3,5-triazin-2-yl)amino]benzenemethane sulfonamide] | 1000 to 10000 nM | > 10000 nM | > 10000 nM |
| COC[C@H]1CCCN1c1ncnc(Nc2cccc(CS(N)(=O)=O)c2)n1 [Compound B17, (R)-3-[(4-(2-(Methoxymethyl)pyrrolidin-1-yl)-1,3,5-triazin-2-yl)amino]benzenemethanesulfonamide] | 100 to 1000 nM | > 10000 nM | > 10000 nM |
| COC(=O)[C@H]1CCCN1c1ncnc(Nc2cccc(CS(N)(=O)=O)c2)n1 [Compound B21, (R)-Methyl 1-[4-((3-(Sulfamoylmethyl)phenyl)amino)-1,3,5-triazin-2-yl]pyrrolidine-2-carboxylate] | 100 to 1000 nM | – | > 10000 nM |
| NS(=O)(=O)Cc1cccc(Nc2ncnc(N3CCc4ncccc4C3)n2)c1 [Compound B38, 3-[(4-(7,8-Dihydro-1,6-naphthyridin-6(5H)-yl)-1,3,5-triazin-2-yl)amino]-benzenemethanesulfonamide] | < 100 nM | > 10000 nM | 1000 to 10000 nM |
| NS(=O)(=O)Cc1cccc(Nc2ncnc(N3CCc4nc[nH]c4C3)n2)c1 [Compound B44, 3-[(4-(6,7-Dihydro-3H-imidazo[4,5-c]pyridin-5(4H)-yl)-1,3,5-triazin-2-yl)amino]benzenemethanesulfonamide] | < 100 nM | – | – |
| NS(=O)(=O)Cc1cccc(Nc2ncnc(N3CCc4ncsc4C3)n2)c1 [Compound B45, 3-[(4-(6,7-Dihydrothiazolo[5,4-c]pyridin-5(4H)-yl)-1,3,5-triazin-2-yl)amino]benzenemethanesulfonamide] | < 100 nM | 1000 to 10000 nM | – |
| NS(=O)(=O)Cc1cccc(Nc2ncnc(N3CCCn4nccc43)n2)c1 [Compound B47, 3-[(4-(6,7-Dihydropyrazolo[1,5-a]pyrimidin-4(5H)-yl)-1,3,5-triazin-2-yl)amino]benzenemethanesulfonamide] | < 100 nM | 1000 to 10000 nM | 1000 to 10000 nM |
| NS(=O)(=O)Cc1cccc(Nc2ncnc(N3Cc4cn[nH]c4C3)n2)c1 [Compound B51, 3-[(4-(Pyrrolo[3,4-c]pyrazol-5(1H,4H,6H)-yl)-1,3,5-triazin-2-yl)amino]-benzenemethanesulfonamide] | < 100 nM | > 10000 nM | – |
